# Measurements as given in patent publication US7417039B2, “Use of substituted azetidinone compounds for the treatment of sitosterolemia” (Schering Corporation, priority 2001, dated 2008).
# Columns and labels:
# [1] = system: plasma plant sterols (sitosterol and campesterol) and LDL-C; experiment: In vivo evaluation in humans: randomized, double-blind, placebo-controlled 8-week trial in homozygous sitosterolemia; set-up: species or system human; conditions: homozygous sitosterolemia patients, 8 weeks
# Experimental: In a randomized multicenter, double-blind, placebo-controlled, 8-week trial, 37 human patients previously diagnosed with homozygous sitosterolemia were randomized to receive Compound VIII (n=30) or placebo (n=7): • Treatment A—Compound VIII given orally as 1 dose (10 mg) per day, • Treatment B—Placebo (matching image of Compound VIII 10 mg) given orally as 1 dose per day, every morning for 8 consecutive weeks.
# During the trial, subjects were instructed to maintain (as a minimum) a National Cholesterol Education Program (NCEP) Step 1 diet
# Patients were instructed to maintain a diary of food intake and monitored prior to randomization, at baseline and during therapy. Results of the central diet analysis for each subject were reported as a RISCC score (Ratio of Ingested Saturated fat and Cholesterol to Calories) and as dietary components. RISCC scores indicate the potential for a diet to influence plasma lipid levels. A score ranging from 14 to 20 correlates with a NCEP step 1 diet.
# Low-Density-Lipoprotein-Cholesterol (LDL-C) results were reported as direct LDL-C (plasma concentration was determined following a standard ultra centrifugation/precipitation procedure; lipid and lipoprotein analysis, see Manual of Laboratory Operations: Lipid Research Clinics Program Report. Washington, D.C.: US Department of Health, Education, and Welfare publication; 1974. NIH 75-628, vol 1, which is incorporated by reference herein or beta-quantification) and calculated LDL-C (plasma concentration; based on Freidewald equation: LDL-C=Total cholesterol minus (Triglycerides divided by 5) minus High-density-lipoprotein cholesterol (HDL-C)).
# Total cholesterol and Triglycerides were determined enzymatically using a Hitachi 747 analyzer; see, Steiner P M, Freidel J, Bremner W F, Stein E A: Standardization of micromethods for plasma cholesterol, triglyceride and HDL-cholesterol with the Lipid Clinics' methodology [abstract]. J Clin Chem Clin Biochem 1981;19:850, which is incorporated by reference herein.
# HDL-C was determined enzymatically after heparin and magnesium precipitation; see, Steele W B, Koehle D F, Azar M M, Blaszkowski T P, Kuba K, Dempsey M E: Enzymatic determinations of cholesterol in high density lipoprotein fractions prepared by precipitation technique. Clin Chem 1976;22:98-101, which is incorporated by reference herein.
# Plasma plant sterols (sitosterol and campesterol) and LDL-C were assessed at baseline (Day 1) and at endpoint (average of Weeks 6 and 8 values). See: Salen, Gerald; Shore, Virgie; Tint, G S; Forte, T: Shefer, S; Horak, I; Horak, E; Dayal, B; Nguyen, L.; Batta, A K; Lindgren, F T; Kwiterovich, Jr, P O, “Increased sitosterol absorption, decreased removal and expanded body pools compensate for reduced cholesterol synthesis in sitosterolemia with xanthomatosis”, J Lipid Res, Vol. 30, pp 1319-30, (1989) and Lutjohann, D; Bjorkhem, I; Beil, U F, and von Bergmann, K, “Sterol absorption and sterol balance in phytosterolemia evaluated by deuterium-labeled sterols: effect of sitostanol treatment” J Lipid Res. Vol. 36:(8), pp 1763-73, (1995), each of which is incorporated by reference herein.
# [2] = system: Sitosterol Absorption; experiment: In vivo evaluation in mice: [3H]-sitosterol absorption and hepatic accumulation
# Experimental: In vivo activity of compound VIII in mice was determined by the following procedure:
# Male ApoE knockout mice, age 6 wks, were received from Jackson Laboratory along with age-matched C57BL/J. The mice were housed 5 per cage, normal light cycle, normal diet. Twenty-six mice of each variety were weighed and housed, 1 per cage, in suspended wire cages with normal light cycle, normal diet. After three days, the mice were reweighed. Based on body weight, the mice were divided into 5 groups for each type of treatment:
# Control (corn oil) and Compositions including Compound VIII at 0.3, 1, 3, and 10 mg/kg of body weight per day.
# Preparation of Compositions including Compound VIII based on 22 g average mouse body weight:
# The mice were gavaged using a feeding needle 30 min before receiving ^14C-cholesterol (NEN, NEC 018) and ^3H-sitosterol (NEN, CUS 030T). The radioactive dose was prepared from: • 114 μL ^3H-sitosterol stock (1 μCi/μL in ethanol); • 1.425 mL ^14C-cholesterol stock (40 μCi/mL in ethanol); • 5.7 mg cholesterol, Sigma C 8667; • 5.7 mg β-sitosterol, Sigma, S 1270; • The ethanol was removed under N2; • 5.7 ml of corn oil was added, and the mixture was warmed to 60° C.; and shaken for 1 hr.
# Each 0.1 ml dose contained 2 μCi ^3H-sitosterol, 0.1 mg cold (non radioactive) sitosterol; 1 μCi ^14C-cholesterol, and 0.1 mg cold (non radioactive) cholesterol. Radioactive content was verified: 5×10 μl counted in Beckman LSC (liquid […] counter). Tritiated sitosterol was used as an “unabsorbable” marker to compare to the absorption of [^14C]-cholesterol in a mouse fecal isotope ratio cholesterol absorption model.
# On the 4th, 5th, and 6th days, feces were collected and stored at −20° C. in vials just before dosing with Control or Compound VIII late in the day. Termination of the experiment on the 7th day involved sacrifice by exsanguination, removal and weighing of the liver. 3×˜250 mg samples of liver were put in vials. The liver samples were digested with 1 ml of 1N NaOH at 60° overnight, neutralized with 0.1 ml 12N HCl and counted for ^14C and ^3H. The blood samples were allowed to clot at room temp for 1 hr, then centrifuged at 1000 G for 15 min. The serum was analyzed for total cholesterol (see Wako C I I; see Allain C C, Poon L S, Chan C S G, Richmond W, Fu P C. Enzymatic Determination of Total Serum Cholesterol. Clin. Chem. 1974; 20:470-475, which is incorporated by reference herein) and radioactivity (2×50 μL). Fecal samples were analyzed for radioactivity by combustion in a Packard Oxidizer followed by Beckman LSC.
# [3] = 10 mg orally once daily, endpoint = average of Weeks 6 and 8
compound,measurement,setting,value
"O=C1[C@H](CC[C@H](O)c2ccc(F)cc2)[C@@H](c2ccc(O)cc2)N1c1ccc(F)cc1 [Compound VIII, ezetimibe]",mean (S.E.) percent change from Baseline at endpoint in plasma Campesterol,[1]; [3],−24.3% (2.9%)
same,mean (S.E.) percent change from Baseline at endpoint in plasma Sitosterol,[1]; [3],−21.0% (2.8%)
same,"percent change from Baseline at endpoint in LDL-C (mean, 95% CI)",[1]; [3],"−13.6% (−21.7%, −5.5%)"
same,reduction in campesterol compared to placebo,[1]; 10 mg per day,significant (p<0.001) reduction
same,reduction in sitosterol compared to placebo,[1]; 10 mg per day,significant (p<0.001) reduction
same,tolerability,[1]; 10 mg per day,well tolerated
same,"% of administered dose absorbed of [^3H]-sitosterol in liver (total animal liver), average","[2]; ApoE KO mice, 0.3 mg/kg/day by gavage in corn oil",0.1863%
same,"% of administered dose absorbed of [^3H]-sitosterol in liver (total animal liver), average","[2]; ApoE KO mice, 1 mg/kg/day by gavage in corn oil",0.1019%
same,"% of administered dose absorbed of [^3H]-sitosterol in liver (total animal liver), average","[2]; ApoE KO mice, 3 mg/kg/day by gavage in corn oil",0.0772%
same,"% of administered dose absorbed of [^3H]-sitosterol in liver (total animal liver), average","[2]; ApoE KO mice, 10 mg/kg/day by gavage in corn oil",0.0780%
same,absorption and hepatic accumulation of sitosterol,"[2]; C57BL/6J and Apo E KO mice, 0.3-10 mg/kg/day",dose dependently inhibit
same,"% of administered dose absorbed of [^3H]-sitosterol in liver (total animal liver), average","[2]; C57BL/6J mice, 0.3 mg/kg/day by gavage in corn oil",0.1093%
same,"% of administered dose absorbed of [^3H]-sitosterol in liver (total animal liver), average","[2]; C57BL/6J mice, 1 mg/kg/day by gavage in corn oil",0.0588%
same,"% of administered dose absorbed of [^3H]-sitosterol in liver (total animal liver), average","[2]; C57BL/6J mice, 3 mg/kg/day by gavage in corn oil",0.0489%
same,"% of administered dose absorbed of [^3H]-sitosterol in liver (total animal liver), average","[2]; C57BL/6J mice, 10 mg/kg/day by gavage in corn oil",0.0552%
